Source: patent US9884891B2, “KISS1R receptor agonist compounds and use thereof for inducing ovulation in mammals” (INSTITUT NATIONAL DE LA RECHERCHE AGRONOMIQUE, priority 2013, dated 2018)
Like-named read-outs stand apart in the source and are kept apart here. Values belong to the compound of their own block, whether it stands above or below them. Where a SMILES comes first, the peptide text is derived from it.

What was measured:
plasma LH concentration = test: In vivo activity test: plasma LH concentration in ewes after injection of the peptide compound; parameters: species or system ewes of the Ile de France breed; conditions: for increase in the plasma concentration of LH (% of Comp.1 maximum stimulation): FIG. 4
Protocol: The tests were carried out on ewes of the Ile de France breed, either in the anestrus period for the comparative compounds Comp.1 and Comp.3, or in the estrus period for the comparative compound Comp.1 and for the compounds in accordance with the invention C1, C4 and C6. The ewes used in the estrus period were pretreated with a vaginal sponge containing 20 mg of fluorogestone acetate (Chronogest CR sponge, Intervet) in order to block the secretion of LH and to stimulate a luteal phase.
Five days after the insertion of the sponge (for the animals in the estrus period) or the day before the test (for the animals in the anestrus period), a catheter was inserted into the jugular vein of the animal. On the day of the test, the peptide compound to be tested was injected into the catheter, at the desired dose (5 nmol/ewe), diluted in 1 ml of physiological solution. Physiological saline containing heparin (3 ml) was injected immediately after the peptide compound in order to rinse the catheter and to carry all of the compound into the animal's bloodstream.
A negative control (T) consisting of physiological solution alone was also carried out.
Before and following the injection of the test compound, blood samples were taken at variable intervals between 10 min and 1 h, for a period of between 3 h and 30 h.
The blood samples were centrifuged, and the plasma was stored at −20° C. until it was used to measure the LH concentration, according to an RIA method described in the literature (Caraty et al., 2007).
The tests were carried out on ewes of the Ile de France breed in the anestrus period, in the same way as above with reference to the 1st experiment (without any treatment with progesterone). In particular, for all the animals, the day before the test, a catheter was inserted into the jugular vein of the animal. On the day of the test, the peptide compound to be tested was injected into the catheter, at the desired dose (5 nmol/ewe), diluted in 1 ml of physiological solution.
The tests were carried out on ewes of the Ile de France breed in the anestrus period, as indicated above with reference to the 1st experiment (without any treatment with progesterone). In particular, for all the animals, the day before the test, a catheter was inserted into the jugular vein of the animal. On the day of the test, the peptide compound to be tested was injected into the catheter, at the desired dose, diluted in 1 ml of physiological solution. For each compound, the following three doses were tested: 1 nmol/ewe, 5 nmol/ewe and 15 nmol/ewe. […]
Before and following the injection of the test compound, blood samples were taken at variable intervals between 10 min and 1 h, for a period of 10 h.
The blood samples were centrifuged, and the plasma was stored at −20° C. until it was used to measure the LH concentration, according to the RIA method described in the literature (Caraty et al., 2007).

[1] = Test for proteolytic degradation of the peptide compounds in ovine serum; format: in vitro ADME, ewes of the Ile de France breed; conditions: for remaining at 3 h, 50 μM: female, Ile de France, sheep
Protocol: In order to carry out this test, blood was collected from the jugular vein of ewes of the Ile de France breed, and centrifuged. The supernatant (serum) was stored at −20° C. until use.
The degradation in this serum of the various peptide compounds in accordance with the invention and of the comparative peptide compounds is monitored over time. To this effect, each peptide compound to be analyzed and the internal calibrant (L-phenylalaninol) are dissolved in milliQ water (0.5 mM and 6.6 mM, respectively). The commercial protease inhibitor cocktail (Sigma, ref. P8340) is supplied in solution in DMSO.
The serum and the stock solutions of peptide compounds are preheated at 39° C. for 30 minutes. Each solution of peptide compound (50 μl, i.e. a final concentration in the serum of 50 μM) and the solution of internal calibrant (25 μl) are mixed with 425 μl of serum and incubated at 39° C. The proteolytic degradation kinetics of the compounds are monitored by taking a sample, at various given times, of 75 μl of the solution, which are diluted with 150 μL of acetonitrile in order to precipitate the serum proteins. The suspension obtained is centrifuged at 14 000 revolutions/min for 10 min at 4° C.
The amount of peptide compound intact after incubation is determined by integration of the area of the peak, using L-phenylalaninol as internal calibrant. It is expressed as % of the area of the peak at time t=0.
The value corresponding to 100% of intact peptide compound is obtained by mixing 420 μl of serum, 5 μl of the inhibitor cocktail and 25 μl of the phenylalaninol solution, followed by 50 μl of peptide compound, and then by immediately treating the resulting solution according to the protocol described above.

human KISS1R receptor = target: T1, human KISS1R receptor (Homo sapiens, UniProt Q969F8); test: Intracellular calcium mobilization test in HEK293A cells expressing human KISS1R; format: cell-based
T1 construct: expressed in transfected cells
Description: In order to carry out the in vitro tests for the activity of the peptide compounds in accordance with the invention and the comparative compounds, the HEK293A cell line (ATCC, American Type Culture Collection, Manassas, Va., USA) was stably transfected with the human KISS1R receptor (Genbank accession number: NM_032551). The pcDNA3.1 vector (Invitrogen, Cergy Pontoise, France), into which the sequence of human KISS1R has been inserted with a 5′ HA tag at position 957-2150 bp, was used for the transfection. The transfection and the selection of the clones were carried out as described in the literature (Mancini et al. 2009, and Invitrogen website).
In order to verify the agonist activity and to measure the EC50 of the peptide compounds according to the invention, the following protocol was carried out.
HEK293A cells expressing the human KISS1R receptor were seeded into a 96-well plate (μClear® black plate) at the concentration of 40 000 cells/well, and placed in an incubator at 37° C. After 48 hours, the medium was changed and the cells were incubated with the fluorescent dye Fluo-4NW, according to the instructions of the manufacturer (Molecular Probe).
After having measured the basal fluorescence, 5 μl of the 20× solution containing the test compound were added to each well (containing 95 μl) so as to obtain the desired concentration. The variations in fluorescence were recorded every 7 seconds for 5-7 minutes with a plate reader (PolarStar Optima, BMG Labtech). Activity-concentration curves were generated using the GraphPad Prism 5 software, and the EC50 of each compound was calculated by adjusting the curve to a sigmoid.

LH peak / ovulation = conditions: cited from earlier work
[2] = 1st experiment, ewes in the estrus period, 5 nmol/ewe intravenous
[3] = 2nd experiment, ewes in the anestrus period, 5 nmol/ewe intravenous, FIGS. 6a-6d
[4] = intravenous, ewes at the end of the follicular phase

T1 sequence (Q969F8 whole entry): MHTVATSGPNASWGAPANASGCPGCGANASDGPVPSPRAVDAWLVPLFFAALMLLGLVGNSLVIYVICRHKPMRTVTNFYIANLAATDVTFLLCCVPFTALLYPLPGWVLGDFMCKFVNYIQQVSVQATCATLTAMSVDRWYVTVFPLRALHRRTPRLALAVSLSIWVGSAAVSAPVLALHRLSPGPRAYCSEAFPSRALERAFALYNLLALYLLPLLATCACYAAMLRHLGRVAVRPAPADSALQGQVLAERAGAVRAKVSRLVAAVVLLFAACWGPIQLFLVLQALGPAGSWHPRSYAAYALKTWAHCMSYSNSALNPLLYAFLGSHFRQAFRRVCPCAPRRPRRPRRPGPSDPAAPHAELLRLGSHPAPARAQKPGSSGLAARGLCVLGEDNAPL

Compound: CC(C)C[C@@H](C(=O)N[C@@H](CCCNC(=N)N)C(=O)N[C@@H](Cc1ccc(O)cc1)C(N)=O)n1cc(CNC(=O)[C@H](Cc2ccccc2)NC(=O)[C@H](CO)NC(=O)[C@H](CC(N)=O)NC(=O)[C@H](Cc2c[nH]c3ccccc23)NC(=O)[C@H](CC(N)=O)NC(=O)[C@@H](N)Cc2ccc(O)cc2)nn1 [Compound C1, H-Tyr-Asn-Trp-Asn-Ser-Phe-GlyΨ[Tz]Leu-Arg-Tyr-NH2] (HELM PEPTIDE1{Y.N.W.N.S.F.[CC(C)C[C@@H](C(=O)[*:2])n1cc(CN[*:1])nn1].R.Y.[am]}$$$$V2.0)
increase in the plasma concentration of LH (% of Comp.1 maximum stimulation) (plasma LH concentration; [2]): more active than the comparative compounds Comp.1 and Comp.3
duration of action (LH concentration over time) (plasma LH concentration; [3]): sustained for longer over time than the comparative compounds Comp.1 and Comp.3

remaining at 3 h, 50 μM ([1]; serum): 46%
Compound: CC(=O)N[C@@H](Cc1ccc(O)cc1)C(=O)N[C@@H](CC(N)=O)C(=O)N[C@@H](Cc1c[nH]c2ccccc12)C(=O)N[C@@H](CC(N)=O)C(=O)N[C@@H](CO)C(=O)N[C@@H](Cc1ccccc1)C(=O)NCc1cn([C@@H](CC(C)C)C(=O)N[C@@H](CCCNC(=N)N)C(=O)N[C@@H](Cc2ccc(O)cc2)C(N)=O)nn1 [Compound C2, Ac-Tyr-Asn-Trp-Asn-Ser-Phe-GlyΨ[Tz]Leu-Arg-Tyr-NH2] (HELM PEPTIDE1{[ac].Y.N.W.N.S.F.[CC(C)C[C@@H](C(=O)[*:2])n1cc(CN[*:1])nn1].R.Y.[am]}$$$$V2.0)
lifetime in ovine serum (in words) [1]: clearly prolonged in comparison with that of the comparative peptide compound Comp.3
total increase in the plasma LH concentration (AUC) over 9 hours (plasma LH concentration; 2nd experiment, ewes in the anestrus period, 5 nmol/ewe intravenous, FIG. 7): significantly more active than the comparative compounds
duration of action (LH concentration over time) (plasma LH concentration; [3]): sustained for longer over time than the comparative compounds Comp.1 and Comp.3

remaining at 3 h, 50 μM ([1]; serum): 59%
Compound: CNC(=N)NCCC[C@H](NC(=O)[C@H](CC(C)C)n1cc(CNC(=O)[C@H](Cc2ccccc2)NC(=O)[C@H](CO)NC(=O)[C@H](CC(N)=O)NC(=O)[C@H](CCCCNC(C)=O)NC(=O)[C@H](CC(N)=O)NC(=O)[C@H](Cc2ccc(O)cc2)NC(C)=O)nn1)C(=O)N[C@@H](Cc1ccc(O)cc1)C(N)=O [Compound C4, Ac-Tyr-Asn-Lys(Ac)-Asn-Ser-Phe-GlyΨ[Tz]Leu-Arg(Me)-Tyr-NH2] (HELM PEPTIDE1{[ac].Y.N.K.N.S.F.[CC(C)C[C@@H](C(=O)[*:2])n1cc(CN[*:1])nn1].[CNC(=N)NCCC[C@H](N[*:1])C(=O)[*:2]].Y.[am]}|PEPTIDE2{[ac]}$PEPTIDE1,PEPTIDE2,4:R3-1:R2$$$V2.0)
increase in the plasma concentration of LH (% of Comp.1 maximum stimulation) (plasma LH concentration; [2]): more active than the comparative compounds Comp.1 and Comp.3

remaining at 3 h, 50 μM ([1]; serum): 50%
EC50 (human KISS1R receptor; HEK293A cells expressing human KISS1R, Fluo-4NW, read-out: EC50, intracellular calcium mobilization of cells expressing human KISS1R (Table 2)): 0.01 nM
Compound: CNC(=N)NCCC[C@H](NC(=O)[C@H](CC(C)C)n1cc(CNC(=O)[C@H](Cc2ccccc2)NC(=O)[C@@H](NC(=O)[C@H](CC(N)=O)NC(=O)[C@@H](Cc2c[nH]c3ccccc23)NC(=O)[C@@H](Cc2ccc(O)cc2)NC(C)=O)[C@@H](C)O)nn1)C(=O)N[C@@H](Cc1c[nH]c2ccccc12)C(N)=O [Compound C6, Ac-DTyr-DTrp-Asn-Thr-Phe-GlyΨ[Tz]Leu-Arg(Me)-Trp-NH2] (HELM PEPTIDE1{[ac].[dY].[dW].N.T.F.[CC(C)C[C@@H](C(=O)[*:2])n1cc(CN[*:1])nn1].[CNC(=N)NCCC[C@H](N[*:1])C(=O)[*:2]].W.[am]}$$$$V2.0)
increase in the plasma concentration of LH (% of Comp.1 maximum stimulation) (plasma LH concentration; [2]): more active than the comparative compounds Comp.1 and Comp.3

Compound: CCCCCCCCCCCCCCCC(=O)N[C@@H](CCC(=O)NCCCC[C@H](NC(=O)[C@H](Cc1ccc(O)cc1)NC(C)=O)C(=O)N[C@@H](Cc1c[nH]c2ccccc12)C(=O)N[C@@H](CC(N)=O)C(=O)N[C@@H](CO)C(=O)N[C@@H](Cc1ccccc1)C(=O)NCc1cn([C@@H](CC(C)C)C(=O)N[C@@H](CCCNC(=N)N)C(=O)N[C@@H](Cc2ccc(O)cc2)C(N)=O)nn1)C(=O)O [Compound C8, Ac-Tyr-Lys(γ-(N-hexadecanoyl-Glu-OH))-Trp-Asn-Ser-Phe-GlyΨ[Tz]Leu-Arg-Tyr-NH2] (HELM PEPTIDE1{[ac].Y.K.W.N.S.F.[CC(C)C[C@@H](C(=O)[*:2])n1cc(CN[*:1])nn1].R.Y.[am]}|PEPTIDE2{[CCCCCCCCCCCCCCCC(=O)[*:2]].[gGlu]}$PEPTIDE1,PEPTIDE2,3:R3-2:R2$$$V2.0)
duration of action (LH concentration over time) (plasma LH concentration; 3rd experiment, ewes in the anestrus period, 1, 5 and 15 nmol/ewe intravenous, FIGS. 8a, 8b): even further sustained over time, and very significantly, than the compound C2
LH secretion (AUC) (plasma LH concentration; 3rd experiment, ewes in the anestrus period, 1, 5 and 15 nmol/ewe intravenous, FIGS. 9a, 9b): even more active than the compound C2
LH secretion into the plasma after intramuscular injection (plasma LH concentration; 4th experiment, ewes in the estrus period, 15 nmol/ewe intramuscular versus intravenous, FIG. 10): also effective, in vivo, by intramuscular injection

Compound: Ac-YNWNSFGLRY-NH2 [Comp. 3, reference compound]
remaining at 3 h, 50 μM ([1]; ovine serum, 39° C., 50 μM, 3 h, % of the area of the HPLC peak at time t = 0, read-out: % of peptide intact after 3 h of incubation in the serum): 11%
human KISS1R-stimulating power (in words) (human KISS1R receptor; calcium mobilization, compared with Comp.1): more powerful than Comp.1 (mKP10) in vitro
efficiency and duration of the elevation of the plasma LH concentration (plasma LH concentration; 1st experiment, ewes in the anestrus period, 5 nmol/ewe intravenous, FIG. 3, versus Comp.1): only minimally increases

Compound: KP10: decapeptide kisspeptin-10, endogenous KISS1R ligand; species form not stated for the cited ewe studies
induction of an LH peak (LH peak / ovulation; [4]): capable of inducing an LH peak
synchronization of ovulations (LH peak / ovulation; [4]): synchronized to within one hour
time from LH peak to ovulations (LH peak / ovulation; [4]): 21 h
reactivation of the gonadotropic axis and ovulation (LH peak / ovulation; prolonged infusion, period of sexual rest (seasonal anestrus)): capable of reactivating the gonadotropic axis and inducing ovulation
